The supplement of paper PMC10307832

Experiments:
Test in all cases: relative viability (nuclei count vs DMSO), 5 days (fraction); higher = more cells survive
[1] = compound: CC1=CC=C(C=C1)C(=O)CN2C3=C(CCCC3)SC2=N [Pifithrin_alpha] + CCNC(=O)c1noc(-c2cc(C(C)C)c(O)cc2O)c1-c1ccc(CN2CCOCC2)cc1 [Luminespib] (partner 0.01 µM)
Procedure, shortened: (§1)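 Nuclei were stained with Hoechst during a one-step fixation (final 0.05% Triton X-100, 1% formaldehyde, 1 ug/ml Hoechst) carried out 5 days after dosing, then counted on 4× images. The cells, lung cancer lines in 1536-well plates, had been dosed by pin tool the day after seeding with one drug alone or a fixed anchor-drug dose plus five library-drug doses (not always all listed) in √10 steps. Relative viability is the nuclei count in treated wells divided by that in vehicle wells, and each value is the median of duplicate plates.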

[2] = compound: CC1=CC=C(C=C1)C(=O)CN2C3=C(CCCC3)SC2=N [Pifithrin_alpha] + CS(=O)(=O)CCNCc1ccc(-c2ccc3ncnc(Nc4ccc(OCc5cccc(F)c5)c(Cl)c4)c3c2)o1 [Lapatinib] (partner 2 µM)
Procedure, shortened: as §1

Axitinib + Navitoclax = compound: CNC(=O)c1ccccc1Sc1ccc2c(/C=C/c3ccccn3)n[nH]c2c1 [Axitinib] + CC1(C)CCC(c2ccc(Cl)cc2)=C(CN2CCN(c3ccc(C(=O)NS(=O)(=O)c4ccc(N[C@H](CCN5CCOCC5)CSc5ccccc5)c(S(=O)(=O)C(F)(F)F)c4)cc3)CC2)C1 [Navitoclax] (partner 0.5 µM)
Procedure, shortened: as §1

Bemcentinib + OSI-027 = compound: Nc1nc(Nc2ccc3c(c2)CC[C@@H](N2CCCC2)CC3)nn1-c1cc2c(nn1)-c1ccccc1CCC2 [Bemcentinib] + COc1cccc2cc(-c3nc([C@H]4CC[C@H](C(=O)O)CC4)n4ncnc(N)c34)[nH]c12 [OSI-027] (partner 0.5 µM)
Procedure, shortened: as §1

Work on H3255 yielded a relative viability ([1]; first compound 1 µM) of 0.744, a relative viability ([1]; first compound 3.162 µM) of 0.843 and a relative viability ([1]; first compound 10 µM) of 0.965. It also gave a relative viability ([1]; first compound 31.62 µM) of 0.642, a relative viability ([1]; first compound 100 µM) of 0.964 and a relative viability ([2]; first compound 1 µM) of 0.13. The relative viability ([2]; first compound 3.162 µM) was 0.208, the relative viability ([2]; first compound 10 µM) was 0.267 and the relative viability ([2]; first compound 31.62 µM) was 0.244. The relative viability ([2]; first compound 100 µM) was 0.192, the relative viability (Axitinib + Navitoclax; first compound 0.005 µM) was 0.617 and the relative viability (Axitinib + Navitoclax; first compound 0.01581 µM) was 0.377. For the same cell line, the relative viability (Axitinib + Navitoclax; first compound 0.05 µM) was 0.354, the relative viability (Axitinib + Navitoclax; first compound 0.1581 µM) was 0.476 and the relative viability (Axitinib + Navitoclax; first compound 0.5 µM) was 0.561. It also gave a relative viability (Bemcentinib + OSI-027; first compound 0.04 µM) of 0.597, a relative viability (Bemcentinib + OSI-027; first compound 0.1265 µM) of 0.66 and a relative viability (Bemcentinib + OSI-027; first compound 0.4 µM) of 0.558. It also gave a relative viability (Bemcentinib + OSI-027; first compound 1.265 µM) of 0.66 and a relative viability (Bemcentinib + OSI-027; first compound 4 µM) of 0.666.
Cell Line LOU-NH91 has a relative viability ([1]; first compound 1 µM) of 0.322, a relative viability ([1]; first compound 3.162 µM) of 0.261 and a relative viability ([1]; first compound 10 µM) of 0.308. For the same cell line, the relative viability ([1]; first compound 31.62 µM) was 0.315, the relative viability ([1]; first compound 100 µM) was 0.296 and the relative viability ([2]; first compound 1 µM) was 0.576. It also gave a relative viability ([2]; first compound 3.162 µM) of 0.604, a relative viability ([2]; first compound 10 µM) of 0.633 and a relative viability ([2]; first compound 31.62 µM) of 0.492. For the same cell line, the relative viability ([2]; first compound 100 µM) was 0.493, the relative viability (Axitinib + Navitoclax; first compound 0.005 µM) was 0.744 and the relative viability (Axitinib + Navitoclax; first compound 0.01581 µM) was 0.467. It also gave a relative viability (Axitinib + Navitoclax; first compound 0.05 µM) of 0.66, a relative viability (Axitinib + Navitoclax; first compound 0.1581 µM) of 0.645 and a relative viability (Axitinib + Navitoclax; first compound 0.5 µM) of 0.802. It also gave a relative viability (Bemcentinib + OSI-027; first compound 0.04 µM) of 0.697, a relative viability (Bemcentinib + OSI-027; first compound 0.1265 µM) of 0.703 and a relative viability (Bemcentinib + OSI-027; first compound 0.4 µM) of 0.721. The relative viability (Bemcentinib + OSI-027; first compound 1.265 µM) was 0.749 and the relative viability (Bemcentinib + OSI-027; first compound 4 µM) was 0.775.
Cell Line LK-2 has a relative viability ([1]; first compound 1 µM) of 0.219, a relative viability ([1]; first compound 3.162 µM) of 0.179 and a relative viability ([1]; first compound 10 µM) of 0.171. For the same cell line, the relative viability ([1]; first compound 100 µM) was 0.229, the relative viability ([2]; first compound 1 µM) was 0.893 and the relative viability ([2]; first compound 3.162 µM) was 1.18. For the same cell line, the relative viability ([2]; first compound 10 µM) was 0.969, the relative viability ([2]; first compound 100 µM) was 1.47 and the relative viability (Axitinib + Navitoclax; first compound 0.005 µM) was 1.1. The relative viability (Axitinib + Navitoclax; first compound 0.01581 µM) was 0.84, the relative viability (Axitinib + Navitoclax; first compound 0.05 µM) was 0.657 and the relative viability (Axitinib + Navitoclax; first compound 0.1581 µM) was 0.659. It also gave a relative viability (Axitinib + Navitoclax; first compound 0.5 µM) of 0.644, a relative viability (Bemcentinib + OSI-027; first compound 0.04 µM) of 0.171 and a relative viability (Bemcentinib + OSI-027; first compound 0.1265 µM) of 0.229. The relative viability (Bemcentinib + OSI-027; first compound 0.4 µM) was 0.206, the relative viability (Bemcentinib + OSI-027; first compound 1.265 µM) was 0.186 and the relative viability (Bemcentinib + OSI-027; first compound 4 µM) was 0.19.
EPLC-272H was tested, and the relative viability ([1]; first compound 1 µM) was 0.279, the relative viability ([1]; first compound 3.162 µM) was 0.264 and the relative viability ([1]; first compound 10 µM) was 0.564. For the same cell line, the relative viability ([1]; first compound 31.62 µM) was 0.226, the relative viability ([1]; first compound 100 µM) was 0.16 and the relative viability ([2]; first compound 3.162 µM) was 0.8. It also gave a relative viability ([2]; first compound 10 µM) of 1.05, a relative viability ([2]; first compound 31.62 µM) of 0.629 and a relative viability ([2]; first compound 100 µM) of 0.739. The relative viability (Axitinib + Navitoclax; first compound 0.005 µM) was 1.19, the relative viability (Axitinib + Navitoclax; first compound 0.01581 µM) was 1.11 and the relative viability (Axitinib + Navitoclax; first compound 0.05 µM) was 1.09. It also gave a relative viability (Axitinib + Navitoclax; first compound 0.1581 µM) of 1.18, a relative viability (Axitinib + Navitoclax; first compound 0.5 µM) of 1.09 and a relative viability (Bemcentinib + OSI-027; first compound 0.04 µM) of 0.342. It also gave a relative viability (Bemcentinib + OSI-027; first compound 0.1265 µM) of 0.266, a relative viability (Bemcentinib + OSI-027; first compound 0.4 µM) of 0.318 and a relative viability (Bemcentinib + OSI-027; first compound 1.265 µM) of 0.244. It also gave a relative viability (Bemcentinib + OSI-027; first compound 4 µM) of 0.361.
With NCI-H23 the relative viability ([1]; first compound 1 µM) was 0.231, the relative viability ([1]; first compound 3.162 µM) was 0.218 and the relative viability ([1]; first compound 10 µM) was 0.206. For the same cell line, the relative viability ([1]; first compound 31.62 µM) was 0.205, the relative viability ([1]; first compound 100 µM) was 0.187 and the relative viability ([2]; first compound 1 µM) was 1.26. It also gave a relative viability ([2]; first compound 3.162 µM) of 1.13, a relative viability ([2]; first compound 10 µM) of 1 and a relative viability ([2]; first compound 31.62 µM) of 0.682. It also gave a relative viability ([2]; first compound 100 µM) of 0.839, a relative viability (Axitinib + Navitoclax; first compound 0.005 µM) of 0.907 and a relative viability (Axitinib + Navitoclax; first compound 0.01581 µM) of 0.947. It also gave a relative viability (Axitinib + Navitoclax; first compound 0.05 µM) of 0.856, a relative viability (Axitinib + Navitoclax; first compound 0.1581 µM) of 0.87 and a relative viability (Axitinib + Navitoclax; first compound 0.5 µM) of 0.893. It also gave a relative viability (Bemcentinib + OSI-027; first compound 0.04 µM) of 0.581, a relative viability (Bemcentinib + OSI-027; first compound 0.1265 µM) of 0.612 and a relative viability (Bemcentinib + OSI-027; first compound 0.4 µM) of 0.713. It also gave a relative viability (Bemcentinib + OSI-027; first compound 1.265 µM) of 0.447 and a relative viability (Bemcentinib + OSI-027; first compound 4 µM) of 0.684.
Cell Line NCI-H647 has a relative viability ([1]; first compound 1 µM) of 0.356, a relative viability ([1]; first compound 3.162 µM) of 0.26 and a relative viability ([1]; first compound 10 µM) of 0.157. The relative viability ([1]; first compound 31.62 µM) was 0.103, the relative viability ([1]; first compound 100 µM) was 0.177 and the relative viability ([2]; first compound 1 µM) was 0.978. It also gave a relative viability ([2]; first compound 3.162 µM) of 0.997, a relative viability ([2]; first compound 10 µM) of 0.975 and a relative viability ([2]; first compound 100 µM) of 0.966. For the same cell line, the relative viability (Axitinib + Navitoclax; first compound 0.005 µM) was 1.21, the relative viability (Axitinib + Navitoclax; first compound 0.01581 µM) was 1.12 and the relative viability (Axitinib + Navitoclax; first compound 0.05 µM) was 1.03. For the same cell line, the relative viability (Axitinib + Navitoclax; first compound 0.1581 µM) was 1.2, the relative viability (Axitinib + Navitoclax; first compound 0.5 µM) was 1.28 and the relative viability (Bemcentinib + OSI-027; first compound 0.04 µM) was 0.696. It also gave a relative viability (Bemcentinib + OSI-027; first compound 0.1265 µM) of 0.799, a relative viability (Bemcentinib + OSI-027; first compound 0.4 µM) of 0.637 and a relative viability (Bemcentinib + OSI-027; first compound 1.265 µM) of 0.666. For the same cell line, the relative viability (Bemcentinib + OSI-027; first compound 4 µM) was 0.649.
LXF-289 showed a relative viability ([1]; first compound 1 µM) of 0.676, a relative viability ([1]; first compound 3.162 µM) of 0.589 and a relative viability ([1]; first compound 10 µM) of 0.789. For the same cell line, the relative viability ([1]; first compound 31.62 µM) was 0.469, the relative viability ([1]; first compound 100 µM) was 0.697 and the relative viability ([2]; first compound 1 µM) was 0.912. It also gave a relative viability ([2]; first compound 3.162 µM) of 0.979, a relative viability ([2]; first compound 10 µM) of 0.85 and a relative viability ([2]; first compound 31.62 µM) of 0.749. For the same cell line, the relative viability ([2]; first compound 100 µM) was 0.837, the relative viability (Axitinib + Navitoclax; first compound 0.005 µM) was 0.952 and the relative viability (Axitinib + Navitoclax; first compound 0.01581 µM) was 0.944. For the same cell line, the relative viability (Axitinib + Navitoclax; first compound 0.05 µM) was 0.944, the relative viability (Axitinib + Navitoclax; first compound 0.1581 µM) was 0.945 and the relative viability (Axitinib + Navitoclax; first compound 0.5 µM) was 0.928. The relative viability (Bemcentinib + OSI-027; first compound 0.04 µM) was 0.744, the relative viability (Bemcentinib + OSI-027; first compound 0.1265 µM) was 0.837 and the relative viability (Bemcentinib + OSI-027; first compound 0.4 µM) was 0.782. It also gave a relative viability (Bemcentinib + OSI-027; first compound 1.265 µM) of 0.801 and a relative viability (Bemcentinib + OSI-027; first compound 4 µM) of 0.819.
NCI-H596 gave a relative viability ([1]; first compound 1 µM) of 0.991, a relative viability ([1]; first compound 3.162 µM) of 1.1 and a relative viability ([1]; first compound 10 µM) of 1.02. The relative viability ([1]; first compound 31.62 µM) was 0.507, the relative viability ([1]; first compound 100 µM) was 0.566 and the relative viability ([2]; first compound 1 µM) was 0.9. For the same cell line, the relative viability ([2]; first compound 3.162 µM) was 0.934, the relative viability ([2]; first compound 10 µM) was 1.02 and the relative viability ([2]; first compound 31.62 µM) was 0.915. It also gave a relative viability ([2]; first compound 100 µM) of 1.07, a relative viability (Axitinib + Navitoclax; first compound 0.005 µM) of 0.979 and a relative viability (Axitinib + Navitoclax; first compound 0.01581 µM) of 0.859. It also gave a relative viability (Axitinib + Navitoclax; first compound 0.05 µM) of 1.04, a relative viability (Axitinib + Navitoclax; first compound 0.1581 µM) of 0.847 and a relative viability (Axitinib + Navitoclax; first compound 0.5 µM) of 0.969. The relative viability (Bemcentinib + OSI-027; first compound 0.04 µM) was 0.739, the relative viability (Bemcentinib + OSI-027; first compound 0.1265 µM) was 0.665 and the relative viability (Bemcentinib + OSI-027; first compound 0.4 µM) was 0.707. It also gave a relative viability (Bemcentinib + OSI-027; first compound 1.265 µM) of 0.757 and a relative viability (Bemcentinib + OSI-027; first compound 4 µM) of 0.802.
